Assay results reported in US6806359B1, “Hormone receptor compositions and methods” (The Salk Institute for Biological Studies, priority 1986, dated 2004).

What was measured:
GR = target: T1, GR (Homo sapiens, UniProt P04150); experiment: hGR functional assay: CAT activity in CV-1 cells cotransfected with pRShGR alpha (or mutant) and pMTVCAT; assay type: cell-based; parameters: The expression vector linking the RSV LTR to full length hGR cDNA (pRShGR alpha) was designed to obtain high levels of expression; expressed in transfected cells; host or cells: CV-1 monkey kidney cells, cotransfected with pMTVCAT; conditions: 100 nM steroid, cotransfected CV-1 cells
T1 sequence (P04150 1-777): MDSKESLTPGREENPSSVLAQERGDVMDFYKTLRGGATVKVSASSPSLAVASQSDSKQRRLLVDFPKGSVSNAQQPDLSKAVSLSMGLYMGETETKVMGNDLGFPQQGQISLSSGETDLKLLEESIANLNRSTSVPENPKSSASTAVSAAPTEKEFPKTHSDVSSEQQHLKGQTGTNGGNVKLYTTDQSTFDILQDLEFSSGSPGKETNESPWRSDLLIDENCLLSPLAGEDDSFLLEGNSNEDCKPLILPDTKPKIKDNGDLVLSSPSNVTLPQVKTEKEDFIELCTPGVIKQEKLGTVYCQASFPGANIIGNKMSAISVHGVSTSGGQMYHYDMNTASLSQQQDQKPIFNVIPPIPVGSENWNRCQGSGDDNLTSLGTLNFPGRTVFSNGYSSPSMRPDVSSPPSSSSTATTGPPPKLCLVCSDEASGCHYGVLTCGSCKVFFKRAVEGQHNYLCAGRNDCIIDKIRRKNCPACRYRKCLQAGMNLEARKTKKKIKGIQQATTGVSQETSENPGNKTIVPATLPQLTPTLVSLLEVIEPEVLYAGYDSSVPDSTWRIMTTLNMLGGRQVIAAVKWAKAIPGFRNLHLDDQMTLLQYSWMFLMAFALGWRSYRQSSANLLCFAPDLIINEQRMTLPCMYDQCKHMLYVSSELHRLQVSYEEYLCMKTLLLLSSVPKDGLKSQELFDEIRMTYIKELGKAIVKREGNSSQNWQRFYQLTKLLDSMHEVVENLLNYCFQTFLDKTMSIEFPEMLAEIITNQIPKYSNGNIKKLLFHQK
Source text: The assay system and strategy used to study the expression of functional hGR from the cloned cDNA (See Experimental Section I) is shown in FIG. 11. In these experiments, a glucocorticoid-responsive promoter/enhancer element linked to a reporter gene was introduced into a receptor-negative cell. […] For our assay, we chose to use the MTV LTR fused to the sequence coding for chloramphenicol acetyltransferase (CAT) (EC2.3.1.28). […] Cotransfection of pMTVCAT (or pGMCAT) with a receptor expression plasmid provides functional receptors that allow induction of CAT activity upon treatment of the transfected cells with glucocorticoid hormone. In addition, biochemical studies such as steroid binding activity and Western blot analysis of the expressed receptors can be performed simultaneously.
The cells are then cultured in the presence or absence of hormone. CV-1 cells were used to monitor induction of CAT activity, and COS cells were used to measure steroid-binding capacity and the expression of hGR protein.
CAT assays were performed as indicated in Experimental Procedures (See Section II. F.). C, chloramphenicol; AC, 3-acetylchloramphenicol.
The levels of CAT activity were plotted as percentages of the maximal response observe in a particular experiment.
Each plasmid preparation used for transfection was purified using two consecutive CsCl-EtBr equilibrium gradients. […]

rTR alpha = target: T2, rTR alpha (Rattus norvegicus, UniProt P63059); experiment: ^125I-T3 binding to in vitro translated rTR alpha (Scatchard and competition); conditions: excess competitor
T2 construct: made in house; host or cells: rabbit reticulocyte lysate (SP6 transcripts of rbeA12B)
T2 sequence (P63059 1-410 isoform P63059-2): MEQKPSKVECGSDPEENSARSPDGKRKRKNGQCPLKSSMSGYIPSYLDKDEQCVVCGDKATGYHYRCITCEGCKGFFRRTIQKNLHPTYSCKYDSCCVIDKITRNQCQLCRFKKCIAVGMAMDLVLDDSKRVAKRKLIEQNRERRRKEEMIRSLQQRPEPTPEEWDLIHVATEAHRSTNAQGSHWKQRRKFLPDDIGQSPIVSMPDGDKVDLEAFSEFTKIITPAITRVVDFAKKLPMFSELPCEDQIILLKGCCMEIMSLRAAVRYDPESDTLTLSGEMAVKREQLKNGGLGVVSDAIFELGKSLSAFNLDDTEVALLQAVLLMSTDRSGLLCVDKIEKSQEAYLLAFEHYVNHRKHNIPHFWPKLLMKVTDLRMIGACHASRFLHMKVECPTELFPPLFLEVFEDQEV
Source text: In vitro translation and thyroid hormone binding of rTR alpha FIG. 69 rTR alpha was transcribed in vitro and translated in a rabbit reticulocyte lysate. […] Lane 1, no added RNA; lane 2, rbeA12, which contains the entire 5′ untranslated region; lane 3, rbeA12B, which contains only 97 bp of 5′ untranslated sequence. […] Samples from rbeA12B programmed lysates were mixed with increasing concentrations of unlabeled thyroid hormone or analogs to compete with labeled hormone. […] In vitro transcription and translation and hormone binding were performed as described (22, 23).
23. For in vitro transcription, the entire EcoRI insert of rbeA12 was cloned into pGEM1 (Promega Biotec). […] For thyroid hormone binding, transcriptions were performed with SP6 polymerase and 5 to 10 micrograms of rbeA12B linearized with SstI. […] Thyroid hormone binding for both the Scatchard and competition analyses were determined in the same manner, except that unlabeled protein was used for the Scatchard analysis. […] Specific hormone binding was determined by adding a 1000-fold excess of unlabeled hormone and assayed by counting radioactivity eluting in the excluded volume from a Sephadex G-25 fine (Pharmacia) 0.9-by 4.0-cm. column.

For `C[C@]12CC[C@@H]3c4ccc(O)cc4CC[C@H]3[C@@H]1CC[C@@H]2O` [oestradiol], the “induction of CAT activity by steroid” value (GR) was “failed to induce CAT activity” and the “competition for T3 binding to rTR alpha by excess compound” value (rTR alpha) was “no competition”.
